Source: PubChem BioAssay (NCI)
Several values for one entry are separate records, joined by “and”; a condition that tells them apart may be missing. Equal entries are not always repeated.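 Protocol summary: plate cells (96-well), add compound at 5 concentrations, incubate 48 h, interpolate endpoints linearly. GI50 = concentration required for 50% inhibition of growth. TGI marks complete inhibition of growth.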

Legend:
Assay in all cases: inhibition of tumour cell growth, NCI panel, 48 h
KM12 colon = system: KM12 colon
A549 NSCLC = system: A549 NSCLC
OVCAR-3 ovarian = system: OVCAR-3 ovarian
RXF 393 renal = system: RXF 393 renal
HCT-15 colon = system: HCT-15 colon
PC-3 prostate = system: PC-3 prostate
HCC-2998 colon = system: HCC-2998 colon
K-562 leukemia = system: K-562 leukemia
CCRF-CEM leukemia = system: CCRF-CEM leukemia
SR leukemia = system: SR leukemia

Row | SMILES | TGI (KM12 colon) | TGI (A549 NSCLC) | TGI (OVCAR-3 ovarian) | TGI (RXF 393 renal) | TGI (HCT-15 colon) | TGI (PC-3 prostate) | TGI (HCC-2998 colon) | TGI (K-562 leukemia) | TGI (CCRF-CEM leukemia) | TGI (SR leukemia) | GI50 (HCT-15 colon) | GI50 (SR leukemia) | GI50 (CCRF-CEM leukemia)
1 | [N-]=[N+]=C(C(=O)C(=[N+]=[N-])C(=O)c1ccccc1)C(=O)c1ccccc1 | > 100 µM | > 100 µM | > 100 µM | > 100 µM | > 100 µM | > 100 µM | > 100 µM | > 100 µM | – | – | – | – | –
2 | COc1ccc(C=Nc2ccc(-c3nc4ccccc4[nH]3)cc2)cc1OC | > 100 µM | > 100 µM | > 100 µM | > 100 µM | > 100 µM | > 100 µM | – | > 100 µM | > 100 µM | > 100 µM | – | – | –
3 | Cc1cc2occ(-c3ccc(Cl)cc3)c2c(=O)o1 | > 100 µM | > 100 µM | > 100 µM | > 100 µM | > 100 µM | – | – | > 100 µM | > 100 µM | > 100 µM | – | – | –
4 | O=C1CSc2nnc(CCCCCCCCc3nnc4n3NC(=O)CS4)n2N1 | > 100 µM | > 100 µM | > 100 µM | – | > 100 µM | > 100 µM | > 100 µM | > 100 µM | 51.1 µM | > 100 µM | – | – | –
5 | Cc1cc(S(=O)(=O)O)c(NC(=O)c2oc3cc(O)ccc3c(=O)c2C)cc1Cl | > 100 µM | > 100 µM | > 100 µM | > 100 µM | > 100 µM | > 100 µM | > 100 µM | > 100 µM | – | – | – | – | –
6 | O=S1(=O)OCCOS(=O)(=O)C1Cc1nc2ccccc2[nH]1 | > 100 µM | > 100 µM | > 100 µM | – | > 100 µM | 73.4 µM | > 100 µM | > 100 µM | > 100 µM | > 100 µM | – | – | –
7 | CC1(C)CCC2(C(=O)OC3OC(CO)C(O)C(O)C3O)CCC3(CO)C(=CCC4C5(C)CC(O)C(O)C(C)(C(=O)OC6OC(CO)C(O)C(O)C6O)C5CCC43C)C2C1 (stereo not drawn) | > 100 µM | > 100 µM | > 100 µM | > 100 µM | > 100 µM | > 100 µM | > 100 µM | > 100 µM | – | > 100 µM | – | – | –
8 | CC/C(Cl)=N\OC(=O)Nc1ccc(F)cc1F | 41.3 µM | 39.8 µM | 31.9 µM | 27.7 µM | 5.24 µM | 33.3 µM | 36.7 µM | 2.34 µM | 5.11 µM | – | – | – | –
9 | CC(=O)NC1=C(NCC(C)C)C(=O)c2ccccc2C1=O | > 100 µM | > 100 µM | 32.4 µM | 25.4 µM | 33.7 µM | – | > 100 µM | 36.7 µM | 28.4 µM | – | – | – | –
10 | COc1cc2cc(C(=O)N3CC(CCl)c4c3cc([N+](C)(C)Cc3ccc([N+](=O)[O-])n3C)c3ccccc43)[nH]c2c(OC)c1OC (stereo not drawn) | > 23.8 µM | 1.06 µM | > 100 µM | – | – | – | 2.48 µM | > 100 µM | 18.6 µM | 2.29 µM | – | – | –
11 | O=S(=O)(O)C1CCC(O)C2[N-]CCCC21.O=S(=O)(O)C1CCC(O)C2[N-]CCCC21.[Zn+2] (stereo not drawn) | > 100 µM | > 100 µM | > 100 µM | > 100 µM | > 100 µM | > 100 µM | > 100 µM | > 100 µM | – | > 100 µM | – | – | –
12 | C=C1CC(Cn2cc(Br)c(=O)[nH]c2=O)(c2ccc(-c3ccccc3)cc2)OC1=O (stereo not drawn) | 3.68 µM | 21.6 µM | 2.98 µM | – | 3.8 µM | 3.31 µM | 3.21 µM | > 100 µM | 0.712 µM | – | – | – | –
13 | O=C1/C(=C\c2cccc(Oc3ccccc3)c2)SC(c2ccccc2)N1c1cccc([N+](=O)[O-])c1 (stereo not drawn) | > 100 µM | > 100 µM | > 100 µM | > 100 µM | > 100 µM | – | > 100 µM | > 100 µM | 81.2 µM | > 100 µM | – | – | –
14 | Cc1cc2n([O-])cccc-2[n+](=O)c1 | > 100 µM | > 100 µM | > 100 µM | > 100 µM | > 100 µM | – | > 100 µM | > 100 µM | > 100 µM | > 100 µM | – | – | –
15 | CC(C)(C)CC(C)(C)c1ccc(OCCOCC[N+](C)(C)Cc2ccccc2)cc1 | – | 32.8 µM | 6.8 µM | 10.3 µM | 63.6 µM and 51.3 µM | – | 4.05 µM | 15.7 µM | 6.36 µM | – | 16.6 µM | 1.75 µM | –
16 | C/C(=C\Cc1cc(O)ccc1O)CCc1c(C)cc(O)c(C=O)c1C | > 100 µM | > 100 µM | 53.1 µM | 37.1 µM | 84.5 µM | – | > 100 µM | > 100 µM | 30.5 µM | > 100 µM | – | – | 4.46 µM
17 | CCCCCCCCCCCCCCCCOCC(Cl)COP(=O)(O)OP(=O)(O)OCC1OC(n2cnc3c(N)ncnc32)C(O)C1O (stereo not drawn) | > 100 µM | > 100 µM | > 100 µM | > 100 µM | > 100 µM | 96.8 µM | > 100 µM | > 100 µM | > 100 µM | – | – | – | –
18 | CCCCCCOP(=O)(OCCCCCC)OC(C(=O)OC)C(F)(F)F (stereo not drawn) | > 100 µM | > 100 µM | > 100 µM | – | > 100 µM | > 100 µM | > 100 µM | > 100 µM | > 100 µM | > 100 µM | – | – | –
19 | O=C(OCc1ccccc1C1CSCSC1)c1cc(C(=O)OCc2ccccc2C2CSCSC2)c(C(=O)OCc2ccccc2C2CSCSC2)cc1C(=O)OCc1ccccc1C1CSCSC1 | > 100 µM | > 100 µM | > 100 µM | > 100 µM | > 100 µM | – | – | > 100 µM | > 100 µM | > 100 µM | – | – | –
20 | COc1ccc(-c2c3ccccc3c(-c3ccc(OCCCCCBr)cc3)c3ccccc23)cc1 | > 100 µM | > 100 µM | > 100 µM | – | > 100 µM | – | > 100 µM | > 100 µM | > 100 µM | > 100 µM | – | – | –
21 | CO[P@]1(=O)O[C@@H](c2ccccc2)[C@H](O)[C@@]1(O)c1ccccc1 | > 100 µM | > 100 µM | > 100 µM | > 100 µM | > 100 µM | > 100 µM | – | > 100 µM | > 100 µM | > 100 µM | – | – | –
22 | CC(=O)CC1(C)OC(N)=C(C#N)C1(C#N)C#N (stereo not drawn) | > 100 µM | > 100 µM | – | > 100 µM | > 100 µM | > 100 µM | > 100 µM | – | > 100 µM | – | – | – | –
